Experimental findings from US20250206738A1, “WRN INHIBITORS” (Nimbus Wadjet, Inc., priority 2023, published 2025) are described below.

Read-outs that look alike come from different tables or passages of the source.

Test [1] deals with p21 induction in HCT 116 cells. The test is described as follows: p21 induction in cells (In-Cell Western, p21/GAPDH ratio). The test is classed as cell-based. The note with it: 24 h compound incubation, read-out: P21_EC50. How it is done: Example 3: Method for Determining Effect on p21 Induction in Cells
The colon carcinoma cell line HCT 116 was obtained from ATCC and cultured in growth medium consisting of Mccoy's 5A Medium (Gibco 16600108) supplemented with 10% FBS (Transgene FS201-02) and 100 units/mL penicillin-streptomycin (Gibco 15140122) and maintained at 37° C. under 5% CO2. On the day of seeding, 2,000 cells in 30 μL of culture media were plated per well to Poly-D-Lysine 384 Well Black Clear Plates (Biocoat 356663) and incubated overnight at 37° C. under 5% CO2. The following day, compounds were serially diluted in DMSO for a total of 11 test concentrations. The typical starting concentration of compounds was 10 μM with 2-fold dilutions. Next, 150 nL of diluted compound was added in duplicate to the assay plate, using an Echo 655 (Labcyte). The plate was centrifuged at 500 RPM for 1 min and then incubated at 37° C. under 5% CO2 for 24 h. After 24h, medium was removed, and cells were fixed by adding 40 μL of 4% paraformaldehyde solution to each well and incubated for 20 min at room temperature. The plate was then washed 4 times with 100 μL per well of wash buffer (PBS with 0.1% Tween-20) using a microplate washer. Next, 30 μL of ice-cold methanol was added to each well and the plate was incubated at −20° C. for 10 min. The plate was washed 4 times with 100 μL per well of wash buffer by a microplate washer, then 30 μL per well of blocking buffer (Intercept PBS blocking buffer (LI-COR 927-70001) with 0.05% Tween-20) was added and the plate was incubated at room temperature with shaking for 2h. Next, to each test well, 20 μL of primary antibody solution (p21 Waf1/CIP (12D1) RabbitmAb (Cell Signaling Technologies 2947) diluted 1:1000 and GAPDH (D4C6R) Mouse mAb (Cell Signaling Technologies 97166) diluted 1:2000 in blocking buffer) was added and the plate was placed at 4° C., overnight. The following day, the plate was washed 5 times with 100 μL per well of wash buffer using a microplate washer for 5 min. 20 μL per well of secondary antibody (IRDye 680CW Goat anti-Mouse IgG (H+L) (LI-COR 926-68070) diluted 1: 2000 in Blocking Buffer and IRDye 800CW Goat anti-Rabbit IgG (H+L) (LI-COR 926-32211) diluted 1: 2000 in Blocking Buffer) was then added and the plate was stored for 2h in the dark at room temperature with shaking. The plate was then washed 4 times with 100 μL per well of wash buffer again using a microplate washer. Finally, the p21 signal and the GAPDH signal were quantified using a LI-COR Odyssey CLx Imager machine reading at 800 nm and 700 nm, respectively. Each plate contained DMSO control (low control) and an internal reference WRN inhibitor (high control) respectively. For quantitation, the 800 nm/700 nm ratio was calculated for each well to give fold p21 induction and then percent activation for each compound well was calculated as follows (100×(ratio cpd well−ratio low control)/(ratio high control−ratio low control)). EC50 values for each compound were generated after non-linear regression curve fitting using commercially available software.

The target of test [2] is T1, human Werner helicase (WRN, Uniprot Q14191, amino acids 517-1235 with L1074F point mutation; WRN-BV08) (Homo sapiens, UniProt Q14191, L1074F).
T1 construct: Uniprot Q14191, amino acids 517-1235 with L1074F point mutation; 8xHis (C, cleaved yes); TEV cleavage site (ENLYFQG) (C, cleaved yes); made in house; host or cells: Sf9 insect cells (baculovirus, pFastBac)
The test is described as follows: WRN (BV08) ADP-Glo assay. The class given is biochemical. As to conditions: WRN-BV08 (aa 517-1235, L1074F); read-out: ADP-Glo_hWRN_IC50. The gist of the method:
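ADP formed by untagged WRN helicase fragment (aa 517-1235, L1074F; 0.15 nM final) on 0.1 nM DNA duplex with […], 60 min at 25 °C after 15 min compound preincubation, pH 7.5 Bicine buffer. Luminescent ADP-Glo readout; IC50 from 4-parameter fit of % inhibition.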
A general note: In ADP-Glo the light output rises with the ADP produced.

T1 sequence (Q14191 with tags, fused parts or gaps L1074F): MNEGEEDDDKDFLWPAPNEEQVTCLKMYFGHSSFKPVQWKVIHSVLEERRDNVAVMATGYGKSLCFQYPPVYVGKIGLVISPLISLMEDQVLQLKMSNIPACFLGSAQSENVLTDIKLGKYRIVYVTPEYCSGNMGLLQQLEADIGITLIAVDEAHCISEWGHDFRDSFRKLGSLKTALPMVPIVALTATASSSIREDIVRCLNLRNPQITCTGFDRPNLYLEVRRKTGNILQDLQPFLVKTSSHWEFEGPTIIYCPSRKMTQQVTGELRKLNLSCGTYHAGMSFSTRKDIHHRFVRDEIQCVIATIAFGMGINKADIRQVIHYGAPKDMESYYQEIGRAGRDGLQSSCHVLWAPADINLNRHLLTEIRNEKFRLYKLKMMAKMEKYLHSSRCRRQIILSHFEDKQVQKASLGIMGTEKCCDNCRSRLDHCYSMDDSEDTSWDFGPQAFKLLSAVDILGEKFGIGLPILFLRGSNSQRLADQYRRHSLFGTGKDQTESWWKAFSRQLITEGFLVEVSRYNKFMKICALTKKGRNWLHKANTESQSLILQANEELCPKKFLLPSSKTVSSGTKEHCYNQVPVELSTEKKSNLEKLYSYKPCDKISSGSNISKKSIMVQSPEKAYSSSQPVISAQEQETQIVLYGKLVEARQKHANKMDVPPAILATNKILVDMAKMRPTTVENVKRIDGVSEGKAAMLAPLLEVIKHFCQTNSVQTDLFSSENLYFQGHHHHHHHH

For `CCc1c(N2CCN(C(=O)c3ncnc(C)c3O)CC2)c(=O)c2nc3cc(C)sc3nc2n1CC(=O)NC12CC(C(F)(F)F)(C1)C2` [I-3, 2-(7-ethyl-6-(4-(5-hydroxy-6-methylpyrimidine-4-carbonyl)piperazin-1-yl)-2-methyl-5-oxopyrido[2,3-b]thieno[3,2-e]pyrazin-8(5H)-yl)-N-(3-(trifluoromethyl)bicyclo[1.1.1]pentan-1-yl)acetamide], the EC50 in test [1] (Homo sapiens, HCT-116, 24 h) was over 5000 nM. The IC50 in test [2] fell in the range of 5 to 50 nM.
The corresponding values for `CCc1c(N2CCN(C(=O)c3c(O)ccc4ncoc34)CC2)c(=O)n2nc(-c3ccnc(OC)c3)nc2n1CC(=O)NC12CC(CCF)(C1)C2` [I-31, 2-(5-ethyl-6-(4-(6-hydroxybenzo[d]oxazole-7-carbonyl)piperazin-1-yl)-2-(2-methoxypyridin-4-yl)-7-oxo-[1,2,4]triazolo[1,5-a]pyrimidin-4(7H)-yl)-N-(3-(2-fluoroethyl)bicyclo[1.1.1]pentan-1-yl)acetamide] are 500 to 2000 nM and 5 to 50 nM.
As to `CCc1c(N2CCN(C(=O)c3c(OC)ncc(C)c3O)CC2)c(=O)n2nc(-c3ccnc(C)c3)nc2n1CC(=O)NC12CC(C(C)C)(C1)C2` [I-217, 2-(5-ethyl-6-(4-(4-hydroxy-2-methoxy-5-methylnicotinoyl)piperazin-1-yl)-2-(2-methylpyridin-4-yl)-7-oxo-[1,2,4]triazolo[1,5-a]pyrimidin-4(7H)-yl)-N-(3-isopropylbicyclo[1.1.1]pentan-1-yl)acetamide], the EC50 in test [1] (Homo sapiens, HCT-116, 24 h) is at most 500 nM. Moreover, the IC50 in test [2] is 5 to 50 nM.
For `CCc1c(N2CCN(C(=O)c3ncnc(C)c3O)[C@H]3CC[C@@H]32)c(=O)c2nc(N(C)C)cnc2n1CC(=O)NC12CC(OC(F)(F)F)(C1)C2` [I-237, 2-(2-(dimethylamino)-6-ethyl-7-((1S,6S)-5-(5-hydroxy-6-methylpyrimidine-4-carbonyl)-2,5-diazabicyclo[4.2.0]octan-2-yl)-8-oxopyrido[2,3-b]pyrazin-5(8H)-yl)-N-(3-(trifluoromethoxy)bicyclo[1.1.1]pentan-1-yl)acetamide] the same measures were 2000 to 5000 nM and 5 to 50 nM.
`CCc1c(N2CCN(C(=O)c3c(O)ccc4nc(C)oc34)CC2)c(=O)n2nc(-c3ccnc(OC)c3)nc2n1CC(=O)NC12CC(CC)(C1)C2` [I-215, 2-(5-ethyl-6-(4-(6-hydroxy-2-methylbenzo[d]oxazole-7-carbonyl)piperazin-1-yl)-2-(2-methoxypyridin-4-yl)-7-oxo-[1,2,4]triazolo[1,5-a]pyrimidin-4(7H)-yl)-N-(3-ethylbicyclo[1.1.1]pentan-1-yl)acetamide]: the EC50 in test [1] (Homo sapiens, HCT-116, 24 h) is at most 500 nM. Besides, in test [2], the IC50 lay within 5 to 50 nM.
For `CCc1c(N2CCN(C(=O)c3ncc4c(c3O)CCO4)CC2)c(=O)n2nc(C3=CCOCC3)nc2n1CC(=O)NC12CC(CC)(C1)C2` [I-14, 2-(2-(3,6-dihydro-2H-pyran-4-yl)-5-ethyl-6-(4-(4-hydroxy-2,3-dihydrofuro[2,3-c]pyridine-5-carbonyl)piperazin-1-yl)-7-oxo-[1,2,4]triazolo[1,5-a]pyrimidin-4(7H)-yl)-N-(3-ethylbicyclo[1.1.1]pentan-1-yl)acetamide] the same measures were 500 to 2000 nM and 5 to 50 nM.
The corresponding values for `CCc1c(N2CCN(C(=O)c3c(O)ccc4ncoc34)CC2)c(=O)n2nc(-c3ccnc(OC)c3)nc2n1CC(=O)NC1CC2(CCC2)C1` [I-206, 2-(5-ethyl-6-(4-(6-hydroxybenzo[d]oxazole-7-carbonyl)piperazin-1-yl)-2-(2-methoxypyridin-4-yl)-7-oxo-[1,2,4]triazolo[1,5-a]pyrimidin-4(7H)-yl)-N-(spiro[3.3]heptan-2-yl)acetamide] are 500 to 2000 nM and 5 to 50 nM.
In the case of `CCc1c(N2CCN(C(=O)c3c(OC)ncc(C4CCOC4)c3O)CC2)c(=O)c2nn(-c3ccnc(OC)c3)nc2n1CC(=O)NC12CC(C(C)C)(C1)C2` (single isomer, unassigned) [I-65], in test [1], the EC50 is at most 500 nM. The IC50 in test [2] is 5 to 50 nM.
